Earlier results on 1 molecule are cited in US10113200B2, “Genes associated with dasatinib sensitivity” (MEMORIAL SLOAN-KETTERING CANCER CENTER, priority 2012, dated 2018).

The data set has as its system patients with chronic phase CML. Conditions: 100 mg once-daily compared with 70 mg twice-daily.

In the case of `Cc1nc(Nc2ncc(C(=O)Nc3c(C)cccc3Cl)s2)cc(N2CCN(CCO)CC2)n1` [dasatinib], the safety profile entry was “improves the safety profile, particularly decreasing pleural effusion and thrombocytopenia, while maintaining efficacy”.
